Results reported in ChEMBL document CHEMBL1130019, “Discovery of potent isoxazoline glycoprotein IIb/IIIa receptor antagonists” (J Med Chem, 1997).
Blank lines part the entries; values can stand above or below the compound they belong to.

What was measured:
[1] = target: T1, Integrin alpha-IIb/beta-3 (Homo sapiens, UniProt P05106+P08514); assay: Inhibition of human platelet aggregation induced by ADP at 100 uM; format: functional
[2] = system: Integrin alpha-IIb/beta-3 (Canis lupus familiaris); assay: Inhibition of ADP-mediated platelet aggregation over 6 hr; details: concentration not given here
[3] = Inhibition of interaction between HUVEC cells and Vitronectin; format: cell-based, Homo sapiens
[4] = target: T1, Integrin alpha-IIb/beta-3; assay: Inhibition of [125I]fibrinogen binding to activated human platelets; format: functional
Target sequence in this assay (P05106 27-788 limits assumed): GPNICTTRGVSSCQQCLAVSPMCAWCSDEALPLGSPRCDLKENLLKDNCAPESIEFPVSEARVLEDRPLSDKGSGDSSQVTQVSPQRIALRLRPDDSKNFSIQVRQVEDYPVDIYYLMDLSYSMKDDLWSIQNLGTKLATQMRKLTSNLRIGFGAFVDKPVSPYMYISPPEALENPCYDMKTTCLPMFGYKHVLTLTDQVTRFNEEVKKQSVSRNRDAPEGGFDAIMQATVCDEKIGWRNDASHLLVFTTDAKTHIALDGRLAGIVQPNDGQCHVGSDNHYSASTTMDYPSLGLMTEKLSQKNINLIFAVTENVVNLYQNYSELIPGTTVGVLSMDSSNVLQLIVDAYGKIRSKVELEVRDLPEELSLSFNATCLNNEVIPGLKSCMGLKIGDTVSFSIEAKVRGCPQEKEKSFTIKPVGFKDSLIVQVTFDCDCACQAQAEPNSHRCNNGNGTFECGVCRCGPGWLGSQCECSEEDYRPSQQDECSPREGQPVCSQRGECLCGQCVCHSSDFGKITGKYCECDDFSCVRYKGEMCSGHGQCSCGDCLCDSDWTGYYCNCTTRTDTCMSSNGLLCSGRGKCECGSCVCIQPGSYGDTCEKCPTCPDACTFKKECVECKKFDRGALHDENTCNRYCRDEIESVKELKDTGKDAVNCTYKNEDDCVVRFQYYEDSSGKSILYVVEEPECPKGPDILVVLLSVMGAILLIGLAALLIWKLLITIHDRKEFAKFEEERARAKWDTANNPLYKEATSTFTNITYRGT
Target sequence in this assay (P08514 32-887 limits assumed): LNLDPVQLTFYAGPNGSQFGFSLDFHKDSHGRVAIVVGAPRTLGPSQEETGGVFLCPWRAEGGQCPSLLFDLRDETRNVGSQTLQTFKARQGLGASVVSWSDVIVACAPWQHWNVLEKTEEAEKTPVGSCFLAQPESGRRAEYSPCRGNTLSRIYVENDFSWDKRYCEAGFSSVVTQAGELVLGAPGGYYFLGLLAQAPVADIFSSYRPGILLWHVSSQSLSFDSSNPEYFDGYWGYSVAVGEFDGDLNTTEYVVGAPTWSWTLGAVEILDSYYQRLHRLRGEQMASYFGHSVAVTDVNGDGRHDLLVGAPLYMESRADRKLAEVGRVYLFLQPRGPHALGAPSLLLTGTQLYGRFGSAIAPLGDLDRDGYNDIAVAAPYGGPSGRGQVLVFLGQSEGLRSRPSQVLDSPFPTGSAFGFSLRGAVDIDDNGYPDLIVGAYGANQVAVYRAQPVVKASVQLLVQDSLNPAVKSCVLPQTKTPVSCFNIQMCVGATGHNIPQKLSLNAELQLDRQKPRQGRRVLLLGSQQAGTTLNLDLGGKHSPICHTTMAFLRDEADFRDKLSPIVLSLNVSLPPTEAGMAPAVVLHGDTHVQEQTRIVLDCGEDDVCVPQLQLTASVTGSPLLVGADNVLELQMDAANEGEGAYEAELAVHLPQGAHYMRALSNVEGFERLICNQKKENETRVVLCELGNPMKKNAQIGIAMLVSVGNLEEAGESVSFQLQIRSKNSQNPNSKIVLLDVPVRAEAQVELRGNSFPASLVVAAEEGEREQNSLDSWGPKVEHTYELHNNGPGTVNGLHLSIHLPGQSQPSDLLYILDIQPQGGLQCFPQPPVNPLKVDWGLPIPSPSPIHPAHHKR
Target sequence in this assay (P08514 891-1039 limits assumed): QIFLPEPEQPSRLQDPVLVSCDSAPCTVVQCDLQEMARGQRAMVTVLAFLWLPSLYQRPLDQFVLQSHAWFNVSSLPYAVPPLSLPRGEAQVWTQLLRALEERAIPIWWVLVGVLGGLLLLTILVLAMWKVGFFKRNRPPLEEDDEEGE

[5] = target: T1, Integrin alpha-IIb/beta-3; assay: Inhibition of Fibrinogen Receptor integrin alphaIIb-beta3 in ELISA; format: protein-complex assay
Target sequence in this assay (P05106 27-788 limits assumed): as the sequence (P05106 27-788 limits assumed) above
Target sequence in this assay (P08514 32-887 limits assumed): as the sequence (P08514 32-887 limits assumed) above
Target sequence in this assay (P08514 891-1039 limits assumed): as the sequence (P08514 891-1039 limits assumed) above

Integrin alpha-M/beta-2 [6] = target: T2, Integrin alpha-M/beta-2 (Homo sapiens, UniProt P05107+P11215); assay: Inhibition of Mac-1 interaction with ICAM; format: protein-complex assay
Integrin alpha-M/beta-2 [7] = target: T2, Integrin alpha-M/beta-2; assay: Inhibition of Mac-1 integrin (alphaM-beta2); format: protein-complex assay
Integrin alpha-4/beta-1 = Integrin alpha-4/beta-1 (Homo sapiens, UniProt P05556+P13612); assay: Inhibition of VLA-4 integrin alpha4-beta1 interaction with VCAM; format: protein-complex assay
Integrin alpha-5/beta-1 = Integrin alpha-5/beta-1 (Homo sapiens, UniProt P05556+P08648); assay: Inhibition of interaction between HUVEC cells and fibronectin; format: cell-based
Chain of Integrin alpha-5/beta-1 (P05556 21-798 limits assumed): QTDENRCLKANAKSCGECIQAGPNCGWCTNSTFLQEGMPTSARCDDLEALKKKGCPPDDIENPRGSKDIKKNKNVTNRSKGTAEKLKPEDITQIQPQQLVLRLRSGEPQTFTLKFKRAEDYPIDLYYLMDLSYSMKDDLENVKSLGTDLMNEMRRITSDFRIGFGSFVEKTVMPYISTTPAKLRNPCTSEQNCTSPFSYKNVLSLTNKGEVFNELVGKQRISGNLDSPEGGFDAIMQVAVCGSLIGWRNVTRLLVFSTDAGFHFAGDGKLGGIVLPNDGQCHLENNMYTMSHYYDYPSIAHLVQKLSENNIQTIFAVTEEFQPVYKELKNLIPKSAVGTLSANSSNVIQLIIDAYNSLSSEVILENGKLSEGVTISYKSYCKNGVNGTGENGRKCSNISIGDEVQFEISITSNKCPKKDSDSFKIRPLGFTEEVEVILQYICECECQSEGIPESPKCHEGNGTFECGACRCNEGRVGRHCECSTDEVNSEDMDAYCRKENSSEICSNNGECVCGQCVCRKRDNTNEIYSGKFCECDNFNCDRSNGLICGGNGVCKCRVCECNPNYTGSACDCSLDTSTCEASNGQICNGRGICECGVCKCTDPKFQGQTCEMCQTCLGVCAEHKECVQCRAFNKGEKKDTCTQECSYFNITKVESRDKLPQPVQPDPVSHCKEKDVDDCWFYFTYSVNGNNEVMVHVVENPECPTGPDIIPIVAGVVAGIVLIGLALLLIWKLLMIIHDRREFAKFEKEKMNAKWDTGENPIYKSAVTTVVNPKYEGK
Chain of Integrin alpha-5/beta-1 (P08648 42-894 limits assumed): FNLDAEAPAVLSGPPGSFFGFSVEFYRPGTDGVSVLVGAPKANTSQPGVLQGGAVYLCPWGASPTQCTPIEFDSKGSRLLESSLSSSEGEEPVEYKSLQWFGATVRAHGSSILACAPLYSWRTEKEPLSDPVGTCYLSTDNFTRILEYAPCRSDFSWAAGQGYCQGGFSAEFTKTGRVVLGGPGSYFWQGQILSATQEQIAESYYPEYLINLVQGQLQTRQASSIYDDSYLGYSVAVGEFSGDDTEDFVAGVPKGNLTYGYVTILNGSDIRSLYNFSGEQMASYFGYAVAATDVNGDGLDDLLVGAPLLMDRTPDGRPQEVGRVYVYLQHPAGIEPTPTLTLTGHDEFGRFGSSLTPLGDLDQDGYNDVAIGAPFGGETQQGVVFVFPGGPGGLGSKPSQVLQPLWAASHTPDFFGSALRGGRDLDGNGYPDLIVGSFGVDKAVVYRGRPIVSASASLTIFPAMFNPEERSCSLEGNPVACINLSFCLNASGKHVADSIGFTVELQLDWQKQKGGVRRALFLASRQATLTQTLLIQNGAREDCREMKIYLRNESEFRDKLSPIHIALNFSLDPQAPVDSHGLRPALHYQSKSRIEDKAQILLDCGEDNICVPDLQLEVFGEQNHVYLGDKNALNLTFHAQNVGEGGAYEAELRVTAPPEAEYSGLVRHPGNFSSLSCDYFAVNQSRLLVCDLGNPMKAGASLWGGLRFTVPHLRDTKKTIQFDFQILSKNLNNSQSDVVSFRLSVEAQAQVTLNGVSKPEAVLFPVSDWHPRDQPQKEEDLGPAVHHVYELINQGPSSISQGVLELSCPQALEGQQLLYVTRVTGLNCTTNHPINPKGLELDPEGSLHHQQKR
Chain of Integrin alpha-5/beta-1 (P08648 895-1049 limits assumed): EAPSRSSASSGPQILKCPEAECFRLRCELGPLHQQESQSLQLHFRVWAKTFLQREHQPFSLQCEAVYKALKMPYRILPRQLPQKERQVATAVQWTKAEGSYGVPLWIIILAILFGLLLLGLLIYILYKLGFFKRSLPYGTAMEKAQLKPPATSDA

T2 sequence (P05107 23-769 limits assumed, other chains not shown): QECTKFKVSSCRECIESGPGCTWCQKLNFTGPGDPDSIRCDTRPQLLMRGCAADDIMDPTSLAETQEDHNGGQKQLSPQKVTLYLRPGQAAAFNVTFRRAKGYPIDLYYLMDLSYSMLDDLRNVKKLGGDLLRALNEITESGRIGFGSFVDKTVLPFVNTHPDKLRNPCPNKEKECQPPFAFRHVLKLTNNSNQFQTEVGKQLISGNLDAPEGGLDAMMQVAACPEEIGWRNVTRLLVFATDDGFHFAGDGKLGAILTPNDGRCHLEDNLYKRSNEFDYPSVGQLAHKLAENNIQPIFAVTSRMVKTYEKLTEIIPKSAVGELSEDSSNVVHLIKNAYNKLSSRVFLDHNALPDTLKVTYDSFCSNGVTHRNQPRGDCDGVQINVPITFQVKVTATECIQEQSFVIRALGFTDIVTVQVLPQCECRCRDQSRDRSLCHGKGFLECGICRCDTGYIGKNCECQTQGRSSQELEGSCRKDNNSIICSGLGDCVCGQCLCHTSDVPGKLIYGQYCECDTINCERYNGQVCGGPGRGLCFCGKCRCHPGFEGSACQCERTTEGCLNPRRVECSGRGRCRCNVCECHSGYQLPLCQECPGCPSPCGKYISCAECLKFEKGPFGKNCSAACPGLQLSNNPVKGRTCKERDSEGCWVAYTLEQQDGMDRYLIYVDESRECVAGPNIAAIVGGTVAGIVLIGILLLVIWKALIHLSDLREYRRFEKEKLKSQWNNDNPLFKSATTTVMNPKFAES

inhibition [1]: 24%
Structure (SMILES): O=C(O)CCCN1C(=O)CC2(CC(CCCC3CCNCC3)=NO2)C1=O (stereo unspecified)

inhibition [1]: 16.6%
Structure (SMILES): O=C(O)CCN1C(=O)CC2(CC(CCC3CCNCC3)=NO2)C1=O (stereo unspecified)

inhibition [2]: 90%
Structure (SMILES): CCOC(=O)CCNC(=O)CC1CC(c2ccc(C(=N)N)cc2)=NO1 (stereo unspecified)

IC50 [3]: 200 µM | IC50 [4]: 0.01 µM | IC50 [5]: 0.0011 µM | IC50 (Integrin alpha-M/beta-2 [6]): 100 µM | IC50 (Integrin alpha-M/beta-2 [7]): > 100 µM | IC50 (Integrin alpha-4/beta-1): > 100 µM | IC50 (Integrin alpha-5/beta-1): 180 µM
Structure (SMILES): N=C(N)c1ccc(C2=NOC(CC(=O)NCCC(=O)O)C2)cc1 (stereo unspecified)

inhibition [1]: 16.3%
Structure (SMILES): O=C(O)CCCN1C(=O)CC2(CC(CCC3CCNCC3)=NO2)C1=O (stereo unspecified)
